Source: patent publication US5801180A, “Quinazoline derivatives” (priority 1991, dated 1998)
pIC50: −log10 of the molar value. Counter-ions that a name gives are not always drawn.

Biological target: T1, cGMP-PDE prepared from the swine aeorta (Sus scrofa, UniProt A0A287B475)
T1 construct: The swine aeorta was sliced; from tissue; host or cells: swine aorta, 100000×g supernatant, DEAE-Toyopearl 650S fraction
Assay: Enzyme inhibiting action with the use of cGMP-PDE prepared from the swine aorta
Type: biochemical
Conditions: CaM-independent cGMP-PDE, 1 mM EGTA, 1 μM cGMP substrate, DMSO 4% or below
Description: Enzyme inhibiting action with the use of cGMP-PDE prepared from the swine aeorta
The enzymatic activity of the cGMP-PDE prepared from the swine aeorta was determined according to the method of Thompson et al. ^(1). The enzymatic activity thereof was determined in the presence of 1 mM EGTA by the use of 1 μM cGMP as a substrate. The compound of the present invention was dissolved in DMSO, added to the reaction liquid and examined for the inhibitory activity. The final concentration of DMSO in the reaction liquid was adjusted to 4% or below. (1) Thompson, W. J. and Strada, S. J., Cyclic Nucleotide Phosphodiesterase (PDE), in Methods of Enzymatic Analysis, vol 4, p.127-234, 1984.
The swine aeorta was sliced, followed by the addition of 10 times by volume as much Buffer A (20 mM Tris/HCl, 2 mM Mg acetate, 1 mM Dithiothreitol, 5 mM EDTA, 1400 TIU/liter aprotinin, 10 mg/liter leupeptin, 1 mM benzamidine, 0.2 mM PMSF, pH 7.5). The obtained mixture was homogenized and the homogenate was centrifuged at 100000×g for one hour. The obtained supernatant was supplied a DEAE-Toyopearl 650S (Tosoh, Tokyo, Japan) column. After the column was washed with Buffer B (50 mM Tris/HCl, 0.1 mM EGTA, 2 mM Mg acetate, 1 mM Dithiothreitol, 0.2 mM PMSF, pH 7.5), gradient elution with 0.05 to 0.4M NaCl was conducted. Thus, CaM-independent cGMP-PDE fractions were obtained.

Row | Structure (SMILES) | pIC50
1 | COCCCCOc1nc(NCc2ccc3c(c2)OCO3)c2cc(Cl)ccc2n1 [Example 175, 2-(4-Methoxybutoxy)-4-(3,4-methylenedioxybenzyl)amino-6-chloroquinazoline] | 8.22
2 | OCCCCCCOc1nc(NCc2ccc3c(c2)OCO3)c2cc(Cl)ccc2n1 [Example 176] | 8.52
3 | COc1cc2c(NCc3cc4c(cc3Cl)OCO4)ncnc2c(OC)c1OC [Example 33, 4-(2-Chloro-4,5-methylenedioxybenzyl)amino-6,7,8-trimethoxyquinazoline] | 6.43
4 | O=C(O)CNc1nc(NCc2ccc3c(c2)OCO3)c2cc(Cl)ccc2n1 [Example 237, 2-(Carboxymethyl)amino-4-(3,4-methylenedioxybenzyl)amino-6-chloroquinazoline] | 7.85
5 | COc1cc2ncnc(NCc3ccc4c(c3)OCO4)c2cc1NC(C)=O [Example 73, 4-(3,4-Methylenedioxybenzyl)amino-6-acetamido-7-methoxyquinazoline] | 6.03
6 | O=C(O)C1CCN(c2cc(NCc3ccc4c(c3)OCO4)c3cc(Cl)ccc3n2)CC1 [Example 255, 2-(4-Carboxypiperidino)-4-(3,4-methylenedioxybenzyl)amino-6chloroquinoline] | 7.49
7 | C/C(=C/c1nc(NCc2ccc3c(c2)OCO3)c2cc(Cl)ccc2n1)C(=O)O [Example 123, (Z)-2-(2-carboxy-1-propenyl)-4-(3,4-methylenedioxybenzyl)amino-6-chloroquinazoline] | 7.51
8 | CCOc1ccc2ncnc(NCc3ccc4c(c3)OCO4)c2c1 [Example 64, 4-(3,4-Methylenedioxybenzyl)amino-6-ethoxyquinazoline] | 6.42
9 | COc1nc(NCc2ccc3c(c2)OCO3)c2cc(OC)c(OC)c(OC)c2n1 [Example 167, 2,7,8-Tetramethoxy-4-(3,4-methylenedioxybenzyl)aminoquinazoline] | 6.25
10 | CCOC(=O)C1CCN(c2nc(NCc3ccc4c(c3)OCO4)c3cc(Cl)ccc3n2)CC1 [Example 206, 2-(4-Ethoxycarbonylpiperidino)-4-(3,4-methylenedioxybenzyl)amino-6-chloroquinazoline hydrochloride] | 7.54
11 | COc1ccc2nc(O)nc(NCc3ccc4c(c3)OCO4)c2c1 [Example 140, 2-Hydroxy-4-(3,4-methylenedioxybenzyl)amino-6-methoxyquinazoline] | 6.17
12 | N#Cc1ccc2nc(N3CCC(O)CC3)nc(NCc3ccc4c(c3)OCO4)c2c1 [Example 184, 2-(4-Hydroxypiperidino)-4-(3,4-methylenedioxybenzyl)amino-6-cyanoquinazoline] | 8.22
13 | COc1ccc(CNc2nc(N3CCC(C(=O)O)CC3)nc3ccc(Cl)cc23)cc1Cl [Example 235, 2-(4-Carboxypiperidino)-4-(3-chloro-4-methoxybenzyl)amino-6-chloroquinazoline] | 8.70
14 | COc1ccc(CNc2nc(N3CCC(C(=O)O)CC3)nc3c(OC)c(OC)c(OC)cc23)cc1Cl [Example 232, 2-(4-Carboxypiperidino)-4-(3-chloro-4-methoxybenzyl)amino-6,7,8-trimethoxyquinazoline] | 7.36
15 | O=C(O)CCCCCNc1nc(NCc2ccc3c(c2)OCO3)c2cc(Cl)ccc2n1 [Example 239, 2-(5-Carboxypentyl)amino-4-(3,4-methylenendioxybenzyl)amino-6-chloroquinazoline] | 8.10
16 | O=CNc1cc(CNc2ncnc3ccc(Cl)cc23)ccc1Cl [Example 152, 4-(4-Chloro-3-formamidobenzyl)amino-6-chloroquinazoline] | 6.96
17 | CCOC(=O)c1nc(NCc2ccc3c(c2)OCO3)c2cc(Cl)ccc2n1 [Example 107, 2-Ethoxycarbonyl-4-(3,4-methylenedioxybenzyl)amino-6-chloroquinazoline] | 8.40
18 | CCOC(=O)CON=Cc1nc(NCc2ccc3c(c2)OCO3)c2cc(Cl)ccc2n1 [Example 150, 2-Ethoxycarbonylmethoxyiminomethyl-4-(3,4-methylenedioxybenzyl)amino-6-chloroquinazoline] | 8.14
19 | N#Cc1ccc2nc(OCCO)nc(NCc3ccc4c(c3)OCO4)c2c1 [Example 169, 2-(2-Hydroxyethoxy)-4-(3,4-methylenedioxybenzyl)amino-6-cyanoquinazoline] | 7.96
20 | O=C(O)C1CCN(c2nc(NCc3ccc4c(c3)OCO4)c3cccnc3n2)CC1 [Example 262] | 6.06
21 | CN(CCCC(=O)O)c1nc(NCc2ccc3c(c2)OCO3)c2cc(Cl)ccc2n1 [Example 240, 2-[N-(3-Carboxypropyl)-N-methylamino]-4-(3,4-methylenedioxybenzyl)amino-6-chloroquinazoline] | 8.40

Row | Structure (SMILES) | pIC50
22 | c1ccc2cc3c(NCc4ccc5c(c4)OCO5)ncnc3cc2c1 [Example 78, 4-(3,4-Methylenedioxybenzyl)aminobenzo[g]quinazoline] | 6.30
23 | COc1ccc(CNc2nc(N3CCOCC3)nc3ccc(C#N)cc23)cc1Cl [Example 183, 2-Morpholino-4-(3-chloro-4-methoxybenzyl)amino-6-cyanoquinazoline] | 9.40
24 | COc1nc2ccc(Cl)cc2n1Cc1ccc2c(c1)OCO2 [Example 266, 6-Chloro-2-methoxy-1-(3,4-methylenedioxybenzyl)benzimidazole] | 6.96
25 | COc1ccc2nc(N3CCC(C(=O)O)CC3)nc(NCc3ccc4c(c3)OCO4)c2c1 [Example 233, 2-(4-Carboxypiperidino)-4-(3,4-methylenedioxybenzyl)amino-6-methoxyquinazoline] | 7.89
26 | COc1cc2c(NC(C)c3ccc4c(c3)OCO4)ncnc2c(OC)c1OC (stereo not drawn) [Example 38, 4-(α-Methyl-3,4-methylenedioxybenzyl)amino-6,7,8-trimethoxyquinazolin] | 6.38
27 | CS(=O)(=O)c1ccc2ncnc(NCc3ccc4c(c3)OCO4)c2c1 [Example 138, 4-(3,4-Methylenedioxybenzyl)amino-6-methysulfonylquinazoline] | 6.09
28 | COc1cc2c(NCc3ccc4c(c3)OCO4)nc(/C=C(\C)C(=O)O)nc2c(OC)c1OC [Example 127, (E)-2-(2-Carboxy-1-propenyl)-4-(3,4-methylenedioxybenzyl)amino-6,7,8-trimethoxyquinazoline] | 6.96
29 | OCc1ccc2ncnc(NCc3ccc4c(c3)OCO4)c2c1 [Example 136] | 6.03
30 | COc1cc2nc(Cl)nc(NCc3ccc4c(c3)OCO4)c2cc1OC [Example 97] | 6.10
31 | Clc1ccc2nc(N3CCOCC3)nc(NCc3ccc4c(c3)OCO4)c2c1 [Example 182, 2-Morpholino-4-(3,4-methylenedioxybenzyl)amino-6-chloroquinazoline] | 8.10
32 | CN(CCCC(=O)O)c1nc(NCc2ccc3c(c2)OCO3)c2cc(C#N)ccc2n1 [Example 230, 2-[N-(3-Carboxypropyl)-N-methylamino]-4-(3,4-methylenedioxybenzyl)amino-6-cyanoquinazoline] | 8.24
33 | COc1nc(NCc2ccc3c(c2)OCO3)c2cc(C#N)ccc2n1 [Example 166, 2-Methoxy-4-(3,4-methylenedioxybenzyl)amino-6-cyanoquinazoline] | 7.59
34 | COc1ccc(CNc2nc(N3CCC(C(=O)O)CC3)nc3ccc(C#N)cc23)cc1Cl [Example 228, 2-(4-Carboxypiperidino)-4-(3-chloro-4-methoxybenzyl)amino-6-cyanoquinazoline] | 9.28
35 | N#Cc1ccc2ncnc(NCc3ccc4nc[nH]c4c3)c2c1 [Example 67, 4-(Benzimidazol-5-yl)methylamino-6-cyanoquinazoline] | 6.85
36 | CCOC(=O)/C=C/c1nc(NCc2ccc(OC)c(Cl)c2)c2cc(Cl)ccc2n1 [Example 115, (E)-2-(2-Ethoxycarbonylvinyl)-4-(3-chloro-4-methoxybenzyl)amino-6-chloroquinazoline] | 8.70
37 | Cc1ccc2ncnc(NCc3ccc4c(c3)OCO4)c2c1 [Example 69, 4-(3,4-Methylenedioxybenzyl)amino-6-methylquinazoline] | 6.72
38 | CN(CCO)c1nc(NCc2ccc3c(c2)OCO3)c2cc(Cl)ccc2n1 [Example 189, 2-[N-(2-Hydroxyethyl)-N-methylamino]-4-(3,4-methylenedioxybenzyl)amino-6-chloroquinazoline] | 7.80
39 | COc1cc2c(NCc3ccc4c(c3)OCCO4)ncnc2c(OC)c1OC [Example 25, 4-(4-Ethylenedioxybenzyl)amino-6,7,8-trimethoxyquinazoline] | 6.11
40 | OCCNc1nc(NCc2ccc3c(c2)OCO3)c2cc(Cl)ccc2n1 [Example 188, 2-(2-Hydroxyethyl)amino-4-(3,4-methylenedioxybenzyl)amino-6-chloroquinazoline] | 7.54
41 | Clc1ccc2ncnc(NCc3ccc4nc[nH]c4c3)c2c1 [Example 60, 4-(Benzimidazol-5-ylmethyl)amino-6-chloroquinazoline] | 6.74
42 | COc1ccc(CNc2ncnc3ccc(Cl)cc23)cc1OC [Example 59, 4-(3,4-Dimethoxybenzyl)amino-6-chloroquinazoline] | 6.57
